Assay results from patent US20140221639A1, “RADIOLABELED NUCLEOSIDE ANALOGUE, AND PREPARATION METHOD AND USE THEREOF” (Institute of Nuclear Energy Research Atomic Energy Council, …, priority 2011, published 2014).
Where “and” joins values, the source holds several entries; their conditions need not be identical. Equal values may be shown once. Read-outs that look alike come from different tables or passages of the source.

Experiments:
[1] = Analysis of metabolites in blood and urine through NP-TLC; type: in vivo, FVB/N mice; conditions: NP-TLC CH2Cl2/MeOH = 15/1
Procedure: Blood samples were obtained by heart puncture, and then centrifuged at 13,000 rpm for 10 min. Then, the supernatant (about 300 μL) was placed in a 1.5 mL centrifuge tube containing equal amount of ethanol, and then centrifuged again to obtain the serum.

[2] = test system: NG4TL4-WT tumor; test: Biodistribution study in tumor-bearing mice; type: in vivo, FVB/N mice; conditions: for Biodistribution Blood / Biodistribution Bone / Biodistribution Kidney / Biodistribution Large Intestine / Biodistribution Liver / Biodistribution Lung / Biodistribution Marrow / Biodistribution Pancreas / Biodistribution Stomach / Biodistribution Tumor / Biodistribution Heart / Biodistribution Spleen / Biodistribution Small Intestine / Biodistribution Muscle: 80~90 μCi tail vein, FVB/N mice with NG4TL4-WT tumor
Source text: […] Tumor and 13 other tissures (blood, heart, lung, liver, stomach, small intestine, large intestine, spleen, pancreas, kidney, bone, marrow, and muscle) were removed, rinsed, weighed, and determined for radioactivity with a γ scintilation counter. Uptake of the radioactive trancers in the tissues (counts per min) was calibrated against decay, normalizedto sample weight, and expressed as percentages of injected dosage per gram of tissue (% ID/g) and aggregation ratio of tumor to blood.

[3] = healthy FVB/N mice, intravenous 200 μCi, blood radioactivity
[4] = test system: NG4TL4 cells; test: Cellular uptake test (ratio of cell to medium); type: cell-based; conditions: 1, 2, 4 and 8 h
Procedure: (§1) 2×10^6 cells was inoculated in a 15 cm^2 dish containing 14 mL medium supplemented with 10% FBS. […] At specified time points (using I-131 tracer at 1, 2, 4 and 8_h), the cells on the dish was harvested by using a cell scraper. Then, a cell suspension was transferred to a 15 mL centrifuge tube and centrifuged (at 3500 rpm) for 2 min. After centrifugation, 100 μL centrifugate was collected to a preweighed counting tube and directly poured into a maintained medium. Cell pellets were frozen with dry ice, and further collected into another weighed counting tube. […] Accumulation of activity of radioactive trancer in cell in vitro is represented by a radio of cell to medium:
(§2) Uptake experimental results of the two radioactive nucleoside analogues [^131I]IUdR and [^131I]ICdR in cells are as shown in FIGS. 4((a), (b)).

[5] = test system: LL/2 cells; test: Cellular uptake test (ratio of cell to medium); type: cell-based; conditions: 1, 2, 4 and 8 h
Procedure: as §1, §2

[6] = test system: NG4TL4 sarcoma cells; test: Study on incorporation in DNA; type: cell-based; conditions: 1 μCi/mL medium, 0.5-8 h
Procedure: DNA was extracted with Genomic DNA Mini Kit (Geneaid Biotech Ltd., Taiwan). NG4TL4 cell lines were harvested and inoculated into a petri dish at 2×10^6. […] At 0.5, 1, 2, 4 and 8 h after incubation, the medium was removed, and the cells was washed two times with ice-cold PBS, and then sheared with trypsin and collected to a centrifuge tube for centrifugation (at […] for 1 min). The supernatant was removed, while 50 μL remaining buffer was left to keep the cells in suspension. 300 μL cell lysis buffer was added to the sample and uniformly mixed, the cells was cultured in a water bath at 60° C. for a sereral minutes till the solution was transparent (the sample was inversed once every 3 min). 2 μL RNAse (25 mg/mL) was added to the sample and uniformly mixed, after 5-min incubation at room temperature, 100 μL protein removal buffer was added to the sample, uniformly mixed immediately, and centrifuged for 3 min at full speed (14000 rpm) after 5-min incubation on ice. The resulting solution was transferred as a suspension to another tube, and isopropanol was added and thoroughly mixed. […] In the test, DNA purity was determined at absorption wavelengths of 260 nm and 280 nm, and the ratio of absorbances (OD260/OD280) was about 1.7.

[7] = 5 min after ^131I-IUdR at tail vein
[8] = 15 min after ^131I-IUdR at tail vein

O=c1[nH]c(=O)n([C@H]2C[C@H](O)[C@@H](CO)O2)cc1[131I] [^131I-IUdR, 5-[^124/131I]iodo-2′-deoxyuridine, reference compound]
^131I-IU (%) in Blood [1, 7]: 3.65 ± 3.03% | ^131I-IU (%) in Urine [1, 7]: 4.45 ± 3.03% | ^131I-IUdR (%) in Blood [1, 7]: 25.23 ± 2.88% | ^131I-IUdR (%) in Urine [1, 7]: 8.60 ± 2.88% | ^131I-I^- (%) in Blood [1, 7]: 71.1% and 71.12 ± 5.83% | ^131I-I^- (%) in Urine [1, 7]: 88.0% and 86.96 ± 5.83% | ^131I-IU (%) in Blood [1, 8]: 1.58 ± 0.72% | ^131I-IU (%) in Urine [1, 8]: 2.76 ± 1.23% | ^131I-IUdR (%) in Blood [1, 8]: 6.42 ± 3.89% | ^131I-IUdR (%) in Urine [1, 8]: 5.23 ± 2.05% | ^131I-I^- (%) in Blood [1, 8]: 92.00 ± 4.51% | ^131I-I^- (%) in Urine [1, 8]: 92.02 ± 3.27% | Biodistribution Blood ([2]; 5 min): 13.62 ± 1.19 % ID/g | Biodistribution Bone ([2]; 5 min): 233 ± 035 % ID/g | Biodistribution Kidney ([2]; 5 min): 18.81 ± 2.44 % ID/g | Biodistribution Large Intestine ([2]; 5 min): 7.18 ± 038 % ID/g | Biodistribution Liver ([2]; 5 min): 15.99 ± 2.06 % ID/g | Biodistribution Lung ([2]; 5 min): 933 + 0.69 % ID/g | Biodistribution Marrow ([2]; 5 min): 3.98 ± 1.44 % ID/g | Biodistribution Pancreas ([2]; 5 min): 6.43 ± 0.41 % ID/g | Biodistribution Stomach ([2]; 5 min): 7.04 ± 0.98 % ID/g | Biodistribution Tumor ([2]; 5 min): 635 ± 1.93 % ID/g | Biodistribution Blood ([2]; 30 min): 835 ± 132 % ID/g | Biodistribution Bone ([2]; 30 min): 2.55 ± 030 % ID/g | Biodistribution Heart ([2]; 30 min): 3.15 ± 0.4S | Biodistribution Kidney ([2]; 30 min): 6.95 ± 0.77 % ID/g | Biodistribution Large Intestine ([2]; 30 min): 5.43 ± 0.88 % ID/g | Biodistribution Liver ([2]; 30 min): 3.73 ± 0.57 % ID/g | Biodistribution Lung ([2]; 30 min): 5.80 ± 0.42 % ID/g | Biodistribution Marrow ([2]; 30 min): 538 ± 1.57 % ID/g | Biodistribution Pancreas ([2]; 30 min): 5.52 ± 0.84 % ID/g | Biodistribution Spleen ([2]; 30 min): 6.79 ± 1.66 % ID/g | Biodistribution Stomach ([2]; 30 min): 24.71 ± 3.20 % ID/g | Biodistribution Tumor ([2]; 30 min): 6.11 ± 0.97 % ID/g | Biodistribution Blood ([2]; 1 h): 6.41 ± 036 % ID/g | Biodistribution Bone ([2]; 1 h): 1.59 ± 039 % ID/g | Biodistribution Heart ([2]; 1 h): 2.43 ± 0.56 % ID/g | Biodistribution Large Intestine ([2]; 1 h): 4.73 ± 1.16 % ID/g | Biodistribution Liver ([2]; 1 h): 2.68 ± 0.48 % ID/g | Biodistribution Marrow ([2]; 1 h): 9.86 ± 4.50 % ID/g | Biodistribution Pancreas ([2]; 1 h): 2.84 ± 0.57 % ID/g | Biodistribution Small Intestine ([2]; 1 h): 6.80 ± 0.81 % ID/g | Biodistribution Spleen ([2]; 1 h): 4.18 ± 035 % ID/g | Biodistribution Tumor ([2]; 1 h): 6.61 ± 033 % ID/g | Biodistribution Blood ([2]; 2 h): 4.19 ± 0.60 % ID/g | Biodistribution Bone ([2]; 2 h): 132 ± 033 % ID/g | Biodistribution Liver ([2]; 2 h): 1.67 ± 0.18 % ID/g | Biodistribution Lung ([2]; 2 h): 2.86 ± 0.55 % ID/g | Biodistribution Marrow ([2]; 2 h): 6.88 ± 1.19 % ID/g | Biodistribution Muscle ([2]; 2 h): 0.93 ± 0.14 % ID/g | Biodistribution Pancreas ([2]; 2 h): 2.50 ± 0.58 % ID/g | Biodistribution Small Intestine ([2]; 2 h): 6.77 ± 1.50 % ID/g | Biodistribution Spleen ([2]; 2 h): 3.60 ± 0.40 % ID/g | Biodistribution Stomach ([2]; 2 h): 15.93 + 333 % ID/g | Biodistribution Tumor ([2]; 2 h): 5.63 ± 0.74 % ID/g | Biodistribution Blood ([2]; 4 h): 1.96 ± 0.49 % ID/g | Biodistribution Bone ([2]; 4 h): 0.62 ± 0.29 % ID/g | Biodistribution Heart ([2]; 4 h): 0.88 ± 0.46 % ID/g | Biodistribution Kidney ([2]; 4 h): 1.77 ± 0.71 % ID/g | Biodistribution Lung ([2]; 4 h): 1.60 ± 0.71 % ID/g | Biodistribution Marrow ([2]; 4 h): 6.63 ± 3.84 % ID/g | Biodistribution Muscle ([2]; 4 h): 0.53 ± 0.26 % ID/g | Biodistribution Pancreas ([2]; 4 h): 1.18 ± 0.56 % ID/g | Biodistribution Small Intestine ([2]; 4 h): 4.76 ± 1.26 % ID/g | Biodistribution Spleen ([2]; 4 h): 1.86 ± 0.63 % ID/g | Biodistribution Stomach ([2]; 4 h): 4.49 ± 3.02 % ID/g | Biodistribution Tumor ([2]; 4 h): 3.97 ± 1.00 % ID/g | Biodistribution Blood ([2]; 8 h): 0.48 ± 0.23 % ID/g | Biodistribution Bone ([2]; 8 h): 036 ± 0.12 % ID/g | Biodistribution Heart ([2]; 8 h): 0.19 ± 0.09 % ID/g | Biodistribution Kidney ([2]; 8 h): 0.56 ± 0.21 % ID/g | Biodistribution Large Intestine ([2]; 8 h): 1.78 ± 0.57 % ID/g | Biodistribution Lung ([2]; 8 h): 0.44 ± 0.21 % ID/g | Biodistribution Marrow ([2]; 8 h): 5.00 ± 1.59 % ID/g | Biodistribution Muscle ([2]; 8 h): 0.13 ± 0.03 % ID/g | Biodistribution Small Intestine ([2]; 8 h): 3.40 ± 0.60 % ID/g | Biodistribution Tumor ([2]; 8 h): 2.50 ± 0.79 % ID/g | excretion of drug and metabolites ([2]; mice): mainly through the urinary system | accumulation in organs (biodistribution and imaging) ([2]; tumor-bearing mice): obviously accumulated in organs that rapidly proliferates | Cmax [3]: 18.91 ± 6.16 % ID/mL | t1/2α [3]: 4.8 ± 1.2 min | t1/2β [3]: 2.28 ± 0.90 h | Cmax ([3]; listed as 131I-IudR): 18.91±6.16 % ID/mL | t1/2α ([3]; listed as 131I-IudR): 4.8 ± 1.2 min | t1/2β ([3]; listed as 131I-IudR): 2.28 ± 0.90 h | uptake value over time [4]: continuously increased with time | uptake value over time [5]: continuously increased with time | incorporation into cells / radioactive accumulation in DNA with time [6]: linearly incorporated
